Measured values as given in publication PMC4103896, “Characterization and Evolutionary Implications of the Triad Asp-Xxx-Glu in Group II Phosphopantetheinyl Transferases” (PLoS ONE, 2014).

What was measured:
Format in all cases: biochemical
SchPPT = biological target: T1, SchPPT (Streptomyces chattanoogensis, UniProt H9N836); experiment: in vitro phosphopantetheinylation of scn ACP0-2, LC-MS; conditions: 2 mM CoA, 200 uM scn ACP0-2, 20 uM PPTase, 1.25 mM MgCl2, pH 7.5, 25 °C, 30 min
T1 construct: full-length group II (Sfp-type) PPTase; SchPPT cloned in pET28a (pHJ0024), E. coli; N-terminal His6 stated for the mutants
T1 sequence (H9N836 entry or part of it): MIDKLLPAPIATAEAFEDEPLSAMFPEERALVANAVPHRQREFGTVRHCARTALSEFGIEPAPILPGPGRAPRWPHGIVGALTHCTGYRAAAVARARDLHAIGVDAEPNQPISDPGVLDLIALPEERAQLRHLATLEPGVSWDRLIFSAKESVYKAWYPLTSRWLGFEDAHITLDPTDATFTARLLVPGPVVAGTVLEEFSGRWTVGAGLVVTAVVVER

Sppt [1] = biological target: T2, Sppt (Synechocystis sp. PCC 6803, UniProt Q55185); experiment: in vitro phosphopantetheinylation of sch FAS ACP, HPLC; conditions: 2 mM CoA, 200 uM sch FAS ACP, 20 uM Sppt, 1.25 mM MgCl2, pH 7.5, 25 °C, 30 min
T2 construct: gene slr0495; full-length
T2 sequence (Q55185 whole entry): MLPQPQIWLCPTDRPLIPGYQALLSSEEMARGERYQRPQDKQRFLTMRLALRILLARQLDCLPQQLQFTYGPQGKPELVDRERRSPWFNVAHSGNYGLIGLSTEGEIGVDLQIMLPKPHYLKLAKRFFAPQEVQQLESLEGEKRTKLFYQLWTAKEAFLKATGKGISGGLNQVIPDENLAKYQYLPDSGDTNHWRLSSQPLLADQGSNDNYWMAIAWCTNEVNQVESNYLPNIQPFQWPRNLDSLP

Sppt [2] = biological target: T3, Sppt (Synechocystis sp. PCC 6803, UniProt Q55185, Q112E); experiment: as above; conditions: 2 mM CoA, 200 uM sch FAS ACP, 20 uM Sppt, 1.25 mM MgCl2, pH 7.5, 25 °C, 30 min
T3 construct: gene slr0495; full-length
T3 sequence (Q55185 whole entry Q112E): as the sequence (Q55185 whole entry) above, with Q112E counted along it

## CC(C)(COP(=O)(O)OP(=O)(O)OC[C@H]1O[C@@H](n2cnc3c(N)ncnc32)[C@H](O)[C@@H]1OP(=O)(O)O)[C@@H](O)C(=O)NCCC(=O)NCCS [CoA]
SchPPT
  in vitro phosphopantetheinylation of scn ACP0-2, LC-MS: only wild type SchPPT but neither of the two mutants phosphopantetheinylated scn ACP0-2
Sppt [1]
  in vitro phosphopantetheinylation of sch FAS ACP, HPLC: After incubation of sch FAS ACP with CoA in the presence of Sppt
Sppt [2]
  in vitro phosphopantetheinylation of sch FAS ACP, HPLC: After incubation of sch FAS ACP with CoA in the presence of SpptQ112E
